Holding throughout (type): cell-based
Experiment [1] concerns S. aureus Smith. The experiment in a line: In vitro antibacterial activity (MIC), S. aureus Smith. As to conditions: Staphylococcus aureus, sensitive disc media, Japan Society of Chemotherapy method, read-out: MIC (Minimum Inhibitory Concentration). The procedure: (§1) The in vitro antibacterial activity of the compound obtained in Example 4 as an example of the compound of the present invention against various experimental bacteria was measured using sensitive disc media (produced by Eiken Chemical Co.) according to the MIC measuring method specified by the Japan Society of Chemotherapy. Clarithromycin was used as a comparative drug.

Experiment [2] deals with S. pneumoniae IID 553. The experiment in a line: In vitro antibacterial activity (MIC), S. pneumoniae IID 553. Conditions: Streptococcus pneumoniae, IID553, sensitive disc media, Japan Society of Chemotherapy method, read-out: MIC (Minimum Inhibitory Concentration). The procedure:
as §1

The test system of experiment [3] is S. aureus J-109. As to the kind of experiment: In vitro antibacterial activity (MIC), S. aureus J-109. As to conditions: Staphylococcus aureus, J109, sensitive disc media, Japan Society of Chemotherapy method, read-out: MIC (Minimum Inhibitory Concentration). The procedure:
as §1

In experiment [4] the test system is erythromycin-resistant bacteria. The experiment in a line: Antibacterial activity against erythromycin-resistant bacteria (in words). The procedure:
as §1

The subject of experiment [5] is S. aureus B1. The experiment in a line: In vitro antibacterial activity (MIC), S. aureus B1. Conditions: Staphylococcus aureus, sensitive disc media, Japan Society of Chemotherapy method, read-out: MIC (Minimum Inhibitory Concentration). The procedure:
as §1

Experiment [6] concerns S. pneumoniae BM 210. The experiment in a line: In vitro antibacterial activity (MIC), S. pneumoniae BM 210. As to conditions: Streptococcus pneumoniae, BM210, sensitive disc media, Japan Society of Chemotherapy method, read-out: MIC (Minimum Inhibitory Concentration). The protocol: as §1
For experiment [7], the system named is erythromycin-sensitive bacteria. As to the kind of experiment: Antibacterial activity against erythromycin-sensitive bacteria (in words). The procedure:
as §1

Experiment [8] deals with S. aureus 209P-JC. The experiment in a line: In vitro antibacterial activity (MIC), S. aureus 209P-JC. Conditions: Staphylococcus aureus, sensitive disc media, Japan Society of Chemotherapy method, read-out: MIC (Minimum Inhibitory Concentration). The procedure:
as §1

Experiment [9] relates to S. pneumoniae BM 205. As to the kind of experiment: In vitro antibacterial activity (MIC), S. pneumoniae BM 205. Conditions: Streptococcus pneumoniae, BM205, sensitive disc media, Japan Society of Chemotherapy method, read-out: MIC (Minimum Inhibitory Concentration). The procedure: as §1

In brackets after ≈: the same amount, converted by molar mass.

For the compound `CC[C@H]1OC(=O)[C@H](C)[C@@H](OC(=O)Cc2ccccn2)[C@H](C)[C@@H](O[C@@H]2O[C@H](C)C[C@H](N(C)C)[C@H]2O)[C@](C)(OC)C[C@@H](C)C(=O)[C@H](C)[C@H]2N(CCN(C)Cc3cccnc3)C(=O)O[C@]12C` [Example 4, 11-{2-[N-methyl-N-(3-pyridylmethyl)amino]ethyl}amino-11-deoxy-3-O-(2-pyridyl)acetyl-5-O-desosaminyl-6-O-methylerythronolide A 11,12-cyclic carbamate], the MIC in [1] is 0.2 µg/mL (≈ 0.227 µM); in experiment [2], 0.1 µg/mL (≈ 0.113 µM); in [3] it was greater than 100 µg/mL; in [5], 0.39 µg/mL (≈ 0.442 µM); in experiment [6] it was 0.39 µg/mL (≈ 0.442 µM); in experiment [8], 0.1 µg/mL (≈ 0.113 µM). The MIC in [9] turned out to be 0.39 µg/mL (≈ 0.442 µM). In addition, the antibacterial activity result in experiment [4] and in experiment [7] was “strong antibacterial activity” throughout.
With `CC[C@H]1OC(=O)[C@H](C)[C@@H](O[C@H]2C[C@@](C)(OC)[C@@H](O)[C@H](C)O2)[C@H](C)[C@@H](O[C@@H]2O[C@H](C)C[C@H](N(C)C)[C@H]2O)[C@](C)(OC)C[C@@H](C)C(=O)[C@H](C)[C@@H](O)[C@]1(C)O` [Comparative drug, Clarithromycin, reference compound], the MIC in experiment [2] was 0.1 µg/mL (≈ 0.134 µM); in experiment [3], greater than 100 µg/mL; in experiment [5], greater than 100 µg/mL; in experiment [6], 1.56 µg/mL (≈ 2.09 µM); in experiment [9], greater than 100 µg/mL.
